# From US20150296790A1, “SILICON-CONTAINING COMPOUND AQUEOUS SOLUTION AND ANTIBACTERIAL/ANTIVIRAL AGENT INCLUDING SAID SOLUTION” (JEX CO., LTD., priority 2012, published 2015)
# What was measured:
# Deodorant activity test = settings: γ-CD 1 w/w %, Compound E 0.1 w/w %
# Experimental: The predetermined samples shown in Tables 1 to 5 were tested for deodorant activity against ammonia, acetic acid, isovaleric acid, and nonenal. Now, the test, including the test conditions, will be specifically described. Test Items: The deodorant test and the test to gain SEK mark approval for textiles according to the certification standards of the Japan Textile Evaluation Technology Council (4 ml of sample liquid was applied to a cotton fabric and dried for a period of from 30 minutes to 1 hour. Then, the concentration of the gas volatilized from the cotton fabric was measured by a detection tube and gas chromatography) Odor tested: Ammonia, acetic acid, isovaleric acid, and nonenal Samples used: Sample 1): Compound E 0.1%+γ-CD 1%+purified water 98.9% • Sample 2): Compound E 0.1%+γ-CD 5%+purified water 94.9% Initial gas concentration: Ammonia: 100 ppm (100 cm^2) • Acetic acid: 50 ppm (100 cm^2) • Isovaleric acid: about 38 ppm (48 cm^2) • Nonenal: about 14 ppm (48 cm^2)
# [1] = Stability over time (three-month storage tests, visual); format: physicochemical; settings: purified water
compound,measurement,setting,value
"CCCCCCCCCCCCCCCCCC[N+](C)(C)CCC[Si](OCC)(OCC)OCC.[Cl-] [Compound E, Octadecyl dimethyl(3-triethoxysilylpropyl)ammonium chloride]",Deodorant Effect: Deodorant Activity Test (by Detection Tube and Gas Chromatography),Deodorant activity test,Confirmed
same,"Change Over 3 Months (Accelerated Test at 40° C., Cold Test at 5° C., Ambient Test at 25° C.)","[1]; DEXYPEARL 1 w/w %, Compound E 0.1 w/w %",Not clear but stable
same,"Change Over 3 Months (Accelerated Test at 40° C., Cold Test at 5° C., Ambient Test at 25° C.)","[1]; DEXYPEARL 2 w/w %, Compound E 0.1 w/w %",Not clear but stable
same,"Change Over 3 Months (Accelerated Test at 40° C., Cold Test at 5° C., Ambient Test at 25° C.)","[1]; DEXYPEARL 3 w/w %, Compound E 0.1 w/w %",Not clear but stable
same,"Change Over 3 Months (Accelerated Test at 40° C., Cold Test at 5° C., Ambient Test at 25° C.)","[1]; DEXYPEARL 4 w/w %, Compound E 0.1 w/w %",Not clear but stable
same,"Change Over 3 Months (Accelerated Test at 40° C., Cold Test at 5° C., Ambient Test at 25° C.)","[1]; DEXYPEARL 5 w/w %, Compound E 0.1 w/w %",Not clear but stable
same,"Change Over 3 Months (Accelerated Test at 40° C., Cold Test at 5° C., Ambient Test at 25° C.)","[1]; DEXYPEARL 6 w/w %, Compound E 0.1 w/w %",Not clear but stable
same,"Change Over 3 Months (Accelerated Test at 40° C., Cold Test at 5° C., Ambient Test at 25° C.)","[1]; DEXYPEARL 7 w/w %, Compound E 0.1 w/w %",Not clear but stable
same,"Change Over 3 Months (Accelerated Test at 40° C., Cold Test at 5° C., Ambient Test at 25° C.)","[1]; DEXYPEARL 8 w/w %, Compound E 0.1 w/w %",Not clear but stable
same,"Change Over 3 Months (Accelerated Test at 40° C., Cold Test at 5° C., Ambient Test at 25° C.)","[1]; DEXYPEARL 9 w/w %, Compound E 0.1 w/w %",Not clear but stable
same,"Change Over 3 Months (Accelerated Test at 40° C., Cold Test at 5° C., Ambient Test at 25° C.)","[1]; DEXYPEARL 10 w/w %, Compound E 0.1 w/w %",Not clear but stable
same,"Change Over 3 Months (Accelerated Test at 40° C., Cold Test at 5° C., Ambient Test at 25° C.)","[1]; DEXYPEARL 20 w/w %, Compound E 0.1 w/w %",Precipitated
same,"Change Over 3 Months (Accelerated Test at 40° C., Cold Test at 5° C., Ambient Test at 25° C.)","[1]; DEXYPEARL 30 w/w %, Compound E 0.1 w/w %",Precipitated
same,"Change Over 3 Months (Accelerated Test at 40° C., Cold Test at 5° C., Ambient Test at 25° C.)","[1]; DEXYPEARL 40 w/w %, Compound E 0.1 w/w %",Precipitated
same,"Change Over 3 Months (Accelerated Test at 40° C., Cold Test at 5° C., Ambient Test at 25° C.)","[1]; ISOELEAT 1 w/w %, Compound E 0.1 w/w %",Not clear but stable
same,"Change Over 3 Months (Accelerated Test at 40° C., Cold Test at 5° C., Ambient Test at 25° C.)","[1]; ISOELEAT 2 w/w %, Compound E 0.1 w/w %",Not clear but stable
same,"Change Over 3 Months (Accelerated Test at 40° C., Cold Test at 5° C., Ambient Test at 25° C.)","[1]; ISOELEAT 3 w/w %, Compound E 0.1 w/w %",Not clear but stable
same,"Change Over 3 Months (Accelerated Test at 40° C., Cold Test at 5° C., Ambient Test at 25° C.)","[1]; ISOELEAT 4 w/w %, Compound E 0.1 w/w %",Not clear but stable
same,"Change Over 3 Months (Accelerated Test at 40° C., Cold Test at 5° C., Ambient Test at 25° C.)","[1]; ISOELEAT 5 w/w %, Compound E 0.1 w/w %",Not clear but stable
same,"Change Over 3 Months (Accelerated Test at 40° C., Cold Test at 5° C., Ambient Test at 25° C.)","[1]; ISOELEAT 6 w/w %, Compound E 0.1 w/w %",Not clear but stable
same,"Change Over 3 Months (Accelerated Test at 40° C., Cold Test at 5° C., Ambient Test at 25° C.)","[1]; ISOELEAT 7 w/w %, Compound E 0.1 w/w %",Not clear but stable
same,"Change Over 3 Months (Accelerated Test at 40° C., Cold Test at 5° C., Ambient Test at 25° C.)","[1]; ISOELEAT 8 w/w %, Compound E 0.1 w/w %",Not clear but stable
same,"Change Over 3 Months (Accelerated Test at 40° C., Cold Test at 5° C., Ambient Test at 25° C.)","[1]; ISOELEAT 9 w/w %, Compound E 0.1 w/w %",Not clear but stable
same,"Change Over 3 Months (Accelerated Test at 40° C., Cold Test at 5° C., Ambient Test at 25° C.)","[1]; ISOELEAT 10 w/w %, Compound E 0.1 w/w %",Precipitated
same,"Change Over 3 Months (Accelerated Test at 40° C., Cold Test at 5° C., Ambient Test at 25° C.)","[1]; ISOELEAT 20 w/w %, Compound E 0.1 w/w %",Precipitated
same,"Change Over 3 Months (Accelerated Test at 40° C., Cold Test at 5° C., Ambient Test at 25° C.)","[1]; ISOELEAT 30 w/w %, Compound E 0.1 w/w %",Precipitated
same,"Change Over 3 Months (Accelerated Test at 40° C., Cold Test at 5° C., Ambient Test at 25° C.)","[1]; ISOELEAT 40 w/w %, Compound E 0.1 w/w %",Precipitated
same,"Change Over 3 Months (Accelerated Test at 40° C., Cold Test at 5° C., Ambient Test at 25° C.)","[1]; ISOELEAT 50 w/w %, Compound E 0.1 w/w %",Precipitated
same,"Change Over 3 Months (Accelerated Test at 40° C., Cold Test at 5° C., Ambient Test at 25° C.)","[1]; α-CD 1 w/w %, Compound E 0.1 w/w %",Stable
same,"Change Over 3 Months (Accelerated Test at 40° C., Cold Test at 5° C., Ambient Test at 25° C.)","[1]; α-CD 1 w/w %, Compound E 0.2 w/w %",Stable
same,"Change Over 3 Months (Accelerated Test at 40° C., Cold Test at 5° C., Ambient Test at 25° C.)","[1]; α-CD 1 w/w %, Compound E 0.3 w/w %",Stable
same,"Change Over 3 Months (Accelerated Test at 40° C., Cold Test at 5° C., Ambient Test at 25° C.)","[1]; α-CD 1 w/w %, Compound E 0.4 w/w %",Stable
same,"Change Over 3 Months (Accelerated Test at 40° C., Cold Test at 5° C., Ambient Test at 25° C.)","[1]; α-CD 1 w/w %, Compound E 0.5 w/w %",Stable
same,"Change Over 3 Months (Accelerated Test at 40° C., Cold Test at 5° C., Ambient Test at 25° C.)","[1]; α-CD 1 w/w %, Compound E 0.6 w/w %",Stable
